EC50 data for 52 molecules are collected here from US12612412B2, “Antiviral heterocyclic compounds” (Enanta Pharmaceuticals, Inc., priority 2021, dated 2026).

For the first experiment, the system named is genotype A, "Long" strain RSV. The experiment is described as follows: RSV-A assay (CPE protection in Hep-2 cells, ATPlite readout). The experiment is classed as cell-based, Human respiratory syncytial virus (HRSV). Conditions: human respiratory syncytial virus, RSV-A Long strain, MOI 0.1, CPE protection, read-out: Human RSV-A (“Long”) EC50. In outline: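 Compound effect on RSV-induced CPE: Hep-2 monolayers, MOI 0.1, duplicate 2-fold titrations, 5-day culture in 10% FBS DMEM. Readout is ATP-based luminescence, normalised to virus-only and no-virus controls, giving EC50.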
For the molecule `COc1cc(C(=O)NC[C@](O)(c2cc3c(c(-c4ccc5c(c4)OC(F)(F)O5)n2)OC[C@]3(C)C(N)=O)C2CC2)cc2sc(C3CC3)nc12` [Example 1293], the EC50 was less than 200 nM.

On to `COc1cc(C(=O)NC[C@](O)(c2cc3c(c(-c4c(F)ccc(F)c4Cl)n2)OC[C@]3(C)C(N)=O)C(F)(F)F)cc2cn(C3CC3)nc12` [Example 1244], for which the EC50 was less than 200 nM.

As to `COc1cc(C(=O)NC[C@](O)(c2cc3c(c(-c4cn(C)nc4C(F)(F)F)n2)OC[C@]3(C)C(N)=O)C(F)(F)F)cc2cn(C3CC3)nc12` [Example 904], the EC50 is more than 200 nM.

With `COc1cc(C(=O)NCC(O)(c2cc3c(c(C4=CCOCC4)n2)OC[C@]3(C)C(N)=O)C(F)(F)F)cc2cn(C3CC3)nc12` (stereo partly shown) [Example 1240], the EC50 is more than 200 nM.

Turning to `[2H]C([2H])([2H])c1nc2c(OC)cc(C(=O)NC[C@](O)(c3cc4c(c(-c5cc(Cl)c(F)cc5F)n3)OC[C@]4(C)C(N)=O)C3CC3)cc2cc1Cl` [Example 1287], the EC50 was less than 200 nM.

For the molecule `COc1cc(C(=O)NC[C@](O)(c2cc3c(c(-c4cc(Cl)c(F)cc4F)n2)OC[C@]3(C)C(N)=O)C2CC2)cc2sc(C3CC3)nc12` [Example 1132], the EC50 was less than 200 nM.

Regarding `COc1cc(C(=O)NC[C@@](O)(c2cc3c(c(-c4cc(F)cc(F)c4F)n2)OC[C@]3(C)C(N)=O)C(F)(F)F)cc2cn(C3CC3)nc12` [Example 1246], the EC50 is less than 200 nM.

In the case of `COc1cc(C(=O)NCC(O)(c2cc3c(c(-c4cc(F)c(Cl)c(Cl)c4)n2)OC[C@]3(C)C(N)=O)C(F)(F)F)cc2cn(C3CC3)nc12` (stereo partly shown) [Example 1266], the EC50 is less than 200 nM.

Regarding `COc1cc(C(=O)NC[C@](O)(c2cc3c(c(-c4c(Cl)ccc(F)c4F)n2)OC[C@]3(C)C(N)=O)C(F)(F)F)cc2cn(C3CC3)nc12` [Example 1284], the EC50 is less than 200 nM.

As to `C[C@]1(C(N)=O)COc2c1cc([C@@](O)(CNC(=O)c1ccc3nc(C4CC4)sc3c1)C1CC1)nc2-c1ccc2c(c1)OC(F)(F)O2` [Example 1292], the EC50 was more than 200 nM.

For the molecule `Cc1cnc2c(OC(F)F)cc(C(=O)NC[C@](O)(c3cc4c(c(-c5cccc(Br)c5F)n3)OC[C@]4(C)C(N)=O)C3CC3)cc2c1` [Example 1206], the EC50 is less than 200 nM.

For `Cc1cnc2c(OC(F)F)cc(C(=O)NC[C@](O)(c3cc4c(c(-c5cc(Cl)ccc5F)n3)OC[C@]4(C)C(N)=O)C3CC3)cc2c1` [Example 1200], the EC50 is less than 200 nM.

`Cc1cnc2c(OC(F)F)cc(C(=O)NC[C@](O)(c3cc4c(c(-c5ccc(Cl)c(F)c5F)n3)OC[C@]4(C)C(N)=O)C3CC3)cc2c1` [Example 1214]: the EC50 is less than 200 nM.

Still in this experiment, the particulars now being: human respiratory syncytial virus, genotype A “Long” strain RSV, MOI 0.1, CPE protection, read-out: Human RSV-A (“Long”).
Turning to `Cc1oncc1C(=O)NC[C@](O)(c1cc2c(c(-c3ccc(F)cc3)n1)OC[C@]2(C)C(N)=O)C(F)(F)F` [Example 356], the EC50 is more than 200 nM.

For the molecule `COc1cc(C(=O)NC[C@](O)(c2cc3c(c(-c4ccc(F)cc4)n2)OC[C@]3(C)C(N)=O)C(F)(F)F)ccc1OC[C@@H](C)N` [Example 150], the EC50 is more than 200 nM.

For `COc1ccc(C(=O)NC[C@](O)(c2cc3c(c(-c4ccc(F)cc4)n2)OC[C@]3(C)C(N)=O)C(F)(F)F)cc1C` [Example 423], the EC50 was more than 200 nM.

Take `C[C@]1(C(N)=O)COc2c1cc([C@@](O)(CNC(=O)c1ccc3[nH]c(C4CC4)nc3c1)C(F)(F)F)nc2-c1ccc(F)cc1` [Example 193]: the EC50 is more than 200 nM.

As for `NC(=O)[C@]1(CF)COc2c1cc([C@@](O)(CNC(=O)c1cc(OC3CC3)c3ncccc3c1)C(F)(F)F)nc2-c1ccc(F)cc1` [Example 296], the EC50 is more than 200 nM.

As for `C[C@]1(C(N)=O)COc2c1cc([C@@](O)(CNC(=O)c1cc(Cl)c3nnc(C(F)(F)F)cc3c1)C(F)(F)F)nc2-c1ccc(F)cc1` [Example 98], the EC50 is less than 200 nM.

For `C[C@]1(C(N)=O)COc2c1cc([C@@](O)(CNC(=O)c1ccc3[nH]nnc3c1)C(F)(F)F)nc2-c1ccc(F)cc1` [Example 107], the EC50 was more than 200 nM.

Regarding `C[C@]1(C(N)=O)COc2c1cc([C@@](O)(CNC(=O)c1ccno1)C(F)(F)F)nc2-c1ccc(F)cc1` [Example 364], the EC50 is more than 200 nM.

Take `C[C@]1(C(N)=O)COc2c1cc([C@@](O)(CNC(=O)c1cc3ccc(C(F)(F)F)cc3[nH]1)C(F)(F)F)nc2-c1ccc(F)cc1` [Example 338]: the EC50 was more than 200 nM.

Consider `COc1cc(C(=O)NC[C@](O)(c2cc3c(c(-c4ccc(F)cc4)n2)OC[C@]3(C(N)=O)C2CC2)C(F)(F)F)cc2cccnc12` [Example 269], for which the EC50 is more than 200 nM.

For the molecule `CC(C)c1cc2[nH]ncc2cc1C(=O)NC[C@](O)(c1cc2c(c(-c3ccc(F)cc3)n1)OC[C@]2(C)C(N)=O)C(F)(F)F` [Example 125], the EC50 is more than 200 nM.

Consider `COc1cc(C(=O)NC[C@](O)(c2cc3c(c(-c4ccc(F)cc4)n2)OC[C@]3(C)C(N)=O)C(F)(F)F)cc2cc3c(nc12)CCC3` [Example 71], for which the EC50 was less than 200 nM.

For the molecule `CC(C)(O)CNC(=O)[C@@]1(C)COc2c1cc([C@@](O)(CNC(=O)c1ccc3c(c1)CN(C1CC1)C3=O)C(F)(F)F)nc2-c1ccc(F)cc1` [Example 35], the EC50 was less than 200 nM.

For `C[C@]1(C(N)=O)COc2c1cc([C@@](O)(CNC(=O)c1cccc3c1OCO3)C(F)(F)F)nc2-c1ccc(F)cc1` [Example 382], the EC50 was more than 200 nM.

As for `COc1ccccc1-c1nc(C(=O)NC[C@](O)(c2cc3c(c(-c4ccc(F)cc4)n2)OC[C@]3(C)C(N)=O)C(F)(F)F)c[nH]1` [Example 214], the EC50 is more than 200 nM.

In the case of `C[C@]1(C(N)=O)COc2c1cc([C@@](O)(CNC(=O)c1cccc3nc(N)sc13)C(F)(F)F)nc2-c1ccc(F)cc1` [Example 490], the EC50 was less than 200 nM.

Turning to `C[C@]1(C(N)=O)COc2c1cc([C@@](O)(CNC(=O)c1ccn3ccnc3c1)C(F)(F)F)nc2-c1ccc(F)cc1` [Example 402], the EC50 is more than 200 nM.

For `C[C@]1(C(N)=O)COc2c1cc([C@@](O)(CNC(=O)c1ccc3nccn3n1)C(F)(F)F)nc2-c1ccc(F)cc1` [Example 417], the EC50 was more than 200 nM.

Consider `CC[C@@]1(C(N)=O)COc2c1cc([C@@](O)(CNC(=O)c1cc(OC3CC3)c3ncccc3c1)C(F)(F)F)nc2-c1ccc(F)cc1` [Example 244], for which the EC50 is more than 200 nM.

Turning to `C[C@]1(C(N)=O)COc2c1cc([C@@](O)(CNC(=O)c1ccc3nc(NS(C)(=O)=O)sc3c1)C(F)(F)F)nc2-c1ccc(F)cc1` [Example 140], the EC50 was more than 200 nM.

`COc1cc(C(=O)NC[C@](O)(c2cc3c(c(-c4ccc(F)cc4)n2)OC[C@]3(C)C(N)=O)C2CC2)cn2cc(C3CC3)nc12` [Example 320]: the EC50 is less than 200 nM.

With `COc1cccc(-c2n[nH]cc2C(=O)NC[C@](O)(c2cc3c(c(-c4ccc(F)cc4)n2)OC[C@]3(C)C(N)=O)C(F)(F)F)c1` [Example 448], the EC50 is more than 200 nM.

Consider `Cc1ccnnc1C(=O)NC[C@](O)(c1cc2c(c(-c3ccc(F)cc3)n1)OC[C@]2(C)C(N)=O)C(F)(F)F` [Example 416], for which the EC50 is more than 200 nM.

Take `C[C@]1(C(N)=O)COc2c1cc([C@@](O)(CNC(=O)c1c[nH]nc1-c1ccccc1)C(F)(F)F)nc2-c1ccc(F)cc1` [Example 446]: the EC50 is more than 200 nM.

In the case of `COc1cc(C(=O)NC[C@](O)(c2cc3c(c(-c4ccc(F)cc4)n2)OC[C@]3(C(N)=O)C2CC2)C(F)(F)F)cc2cc(C(F)(F)F)cnc12` [Example 264], the EC50 was more than 200 nM.

Take `Cc1cnc2c(NC(=O)NC34CC(O)(C3)C4)cc(C(=O)NC[C@](O)(c3cc4c(c(-c5ccc(F)cc5)n3)OC[C@]4(C)C(N)=O)C(F)(F)F)cc2c1` [Example 227]: the EC50 was less than 200 nM.

Consider `Cc1nc(-c2ccccc2F)sc1C(=O)NC[C@](O)(c1cc2c(c(-c3ccc(F)cc3)n1)OC[C@]2(C)C(N)=O)C(F)(F)F` [Example 485], for which the EC50 was more than 200 nM.

On to `CC[C@]1(C(N)=O)COc2c1cc([C@@](O)(CNC(=O)c1cc(OC)c3nc(C)c(Cl)cc3c1)C(F)(F)F)nc2-c1ccc(F)cc1` [Example 238], for which the EC50 is more than 200 nM.

Take `COc1cc2cc(C(=O)NC[C@](O)(c3cc4c(c(-c5ccc(F)cc5)n3)OC[C@]4(C)C(N)=O)C(F)(F)F)ccc2nc1Cl` [Example 325]: the EC50 was less than 200 nM.

With `C[C@]1(C(N)=O)COc2c1cc([C@@](O)(CNC(=O)c1ccnc3cc[nH]c13)C(F)(F)F)nc2-c1ccc2c(c1)OC(F)(F)O2` [Example 701], the EC50 was less than 200 nM.

Regarding `C[C@]1(C(N)=O)COc2c1cc([C@@](O)(CNC(=O)c1csc(-c3ccccc3)n1)C(F)(F)F)nc2-c1ccc(F)cc1` [Example 482], the EC50 was more than 200 nM.

For the molecule `C[C@]1(C(N)=O)COc2c1cc([C@@](O)(CNC(=O)c1ccc3nncn3c1)C(F)(F)F)nc2-c1ccc(F)cc1` [Example 109], the EC50 was more than 200 nM.

As for `CC(C)Oc1ccc2cc(C(=O)NC[C@](O)(c3cc4c(c(-c5ccc(F)cc5)n3)OC[C@]4(C)C(N)=O)C(F)(F)F)[nH]c2c1` [Example 339], the EC50 was more than 200 nM.

As for `COc1cc(C(=O)NC[C@](O)(c2cc3c(c(-c4ccc(F)cc4)n2)OC[C@@]3(C(N)=O)C2CC2)C(F)(F)F)cn2cc(C3CC3)nc12` [Example 272], the EC50 was less than 200 nM.

In the case of `C[C@]1(C(N)=O)COc2c1cc([C@@](O)(CNC(=O)c1csc3ccccc13)C(F)(F)F)nc2-c1ccc(F)cc1` [Example 376], the EC50 was more than 200 nM.

Consider `CC[C@@]1(C(N)=O)COc2c1cc([C@@](O)(CNC(=O)c1ccc(OC[C@@H](C)O)c(OC3CC3)c1)C(F)(F)F)nc2-c1ccc(F)cc1` [Example 251], for which the EC50 was more than 200 nM.

In the case of `C[C@]1(C(N)=O)COc2c1cc([C@@](O)(CNC(=O)c1cc3ccccc3o1)C(F)(F)F)nc2-c1ccc(F)cc1` [Example 378], the EC50 was more than 200 nM.

For `C[C@]1(C(N)=O)COc2c1cc([C@@](O)(CNC(=O)c1ccc3nnnn3c1)C(F)(F)F)nc2-c1ccc(F)cc1` [Example 110], the EC50 is more than 200 nM.

Take `C[C@]1(C(N)=O)COc2c1cc([C@@](O)(CNC(=O)c1cc3cc[nH]c3cc1F)C(F)(F)F)nc2-c1ccc(F)cc1` [Example 400]: the EC50 was more than 200 nM.
